Assay results taken from patent publication US20200093782A1, “ARIANTS OF 2-[6-(4-CHLOROPHENOXY)HEXYL]-OXIRANE-2-CARBOXYLIC ACID FOR USE IN THE TREATMENT, PREVENTION AND/OR AMELIORATION OF BRAIN DISEASES” (Meta-IQ ApS, priority 2016, published 2020).

Assays:
Male Wistar rats = test: Chronic mild stress (CMS) induced depression, sucrose consumption test; format: in vivo, rat
Text: Treatment of stress-induced depression by blocking carnitine palmitoyl transferase 1 Rats were initially exposed to four weeks of CMS and subsequently exposed to stressors for another five weeks combined with drug or vehicle treatment (FIG. 7). The intake of sucrose solution was used in order to determine the depression status among rats. […] Moreover, statistical significant difference was found between Escitalopram and Etomoxir treatment in week two, four and five.
The percentage of animals responding over time receiving Etomoxir, Escitalopram or vehicle was compared (FIG. 8). The criterion for responders was set at 20% increase in intake of sucrose at the respective weeks compared to baseline prior to onset of treatment. The percentage of responding rats to Etomoxir treatment was higher than Escitalopram treatment.
Male Wistar rats were used for the CMS model. The weight of the rats was approximately 200 g when the experiment was initiated. The rats were housed singly with 12 h light/dark cycle and food and water was available ad libitum except when these parameters were applied as stress inducers. The following paragraphs concerning the CMS model was performed according to the protocol by Wiborg et al.
In order to quantify the hedonic state of the animals a sucrose consumption test was performed. The animals were trained in five weeks in order to consume a palatable sucrose solution. […]

rats [1] = test: Long term memory test (light/dark shock compartment) with or without MK801; format: in vivo, rat; conditions: MK801, sub cutaneous injection 1 hour before the test
Protocol: Rats are put in a cage where in the dark part (where they like to be) the bedding gives a shock. They are put in the light part during training. The next day the rats are put in the light part again, when long term memory is there, they will not like to go in the dark part (shock compartment).
MK801, blocks the generation of memory.
(§1) Etomoxir was given by sub cutaneous injection 1 hour before the test.

Lewis rats = test: Rat EAE model (MBP in CFA); format: in vivo
rats [2] = test: Short term memory test (3 corridors, alternation ratio) with or without MK801; format: in vivo, rat; conditions: MK801, sub cutaneous injection 1 hour before the test
Protocol: Rats are put in a compartment with 3 corridors. While looking for food, they will first go in 1 corridor, then when no food is found go in the next and when they have a good short term memory, go in the 3rd after that. (this is measured as alternation ratio) MK801 destroys short term memory. Etomoxir restores short term memory.
as §1

rats [3] = test: Sucrose consumption in rats after drinking the drug (test of crossing the BBB); format: in vivo, rat
Protocol: First rats are given R(+)-etomoxir ethyl ester formulated water (4 mg/day) every day for 20 days. Then once a week the sucrose consumption was measured. This study is designed to test is R(+)-etomoxir ethyl ester reaches the brain and therefore is it can cross the blood-brain-barrier (BBB).
Blocking CPT-1 in hypothalamus (applied in the drinking water) […] food intake.

C57B16 mice = test: Mouse EAE model (MOG 35-55), therapeutic treatment; format: in vivo; conditions: 1 mg/kg/day s.c. in olive oil for 2 weeks, start ten days after MOG injection
Text: Six week old C57B16 mice were bred and kept at conventional animal facilities at the University of Copenhagen. Female Lewis rats, 2 months old were used for this study.
All animals were weighed and scored clinically on a daily basis. During progression of EAE, leading to motor disabilities, animals had water in a Petri dish and soaked chow for easy intake to ensure sufficient intake of liquid and nutrients. Healthy animals were used as comparison and control of the EAE exposed animals. […]
The animals were monitored daily, weighed and clinically scored according to the following scale (Imrich and Harzer 2001): 0, no clinical signs of EAE; 1, loss of tail tonus; 2, mild paresis in one or both hindlimbs; 3, moderate paresis in one or both hindlimbs; 4, severe paresis or paralysis in one or both hindlimbs; 5, paralysis in one or both hindlimbs and visible paresis in one or both forelimbs, incontinence; 6, moribund. […]
CPT1 Blockers Have a Therapeutic Effect in Rodent Models with EAE. […] The animals were daily tested for body weight and disease score (Disease was scored as follows; 0=no disease, 1=limp tail, 2=hind-limb paresis, 3=hind-limb paralysis, 4=hind/forelimb paralysis, and 5=death). […]

## CN(C)CCC[C@@]1(c2ccc(F)cc2)OCc2cc(C#N)ccc21 [Escitalopram]
Male Wistar rats; 5 weeks of treatment with continued stress, responder = 20% increase in sucrose intake vs baseline
  percentage of responding (healthy) rats: 57%
Male Wistar rats; five weeks of i.p. daily treatment under stress, Etomoxir 4 mg/kg, Escitalopram 5 mg/kg
  intake of sucrose solution compared to vehicle group: no significant difference

## CCOC(=O)[C@@]1(CCCCCCOc2ccc(Cl)cc2)CO1 [R(+)-etomoxir ethyl ester, R(+)-2-[6-(4-chlorophenoxy)hexyl]-oxirane-2-carboxylic acid ethyl ester]
Rats [1]
  animals with restored long term memory: 40%
Lewis rats; treatment from day 1 or day 5 after induction, compared with placebo
  therapeutic effects when started at day 1 or day 5: significantly better therapeutic effects compared to IFNb
Lewis rats; treatment started at day 7 after induction, read at day 11 (end of study)
  disease- and symptom-free rats: 25%
Rats [2]
  short term memory: restores the animal's short term memory
Rats [3]; 4 mg/day in drinking water, every day for 20 days, measured once a week
  sucrose consumption: increased sucrose consumption
Rats [3]; oral (drinking water), concluded from increased sucrose consumption
  crossing of the blood-brain-barrier (BBB): can cross the blood-brain-barrier (BBB) and reach the brain
C57B16 mice
  symptom-free animals at the end of the study: 52%
